pIC50: −log10 of the molar value.
Legend:
[1] = test system: proinflammatory (M1) and anti-inflammatory (M2) markers in macrophages; experiment: Experimental autoimmune encephalomyelitis (EAE) model, ex vivo analysis of M1 and M2 markers by realtime PCR; type: in vivo, rats; details: EAE induced with MBP, splenic macrophages day 13 and CNS infiltrating macrophages
Procedure: A further study was carried out to study the impact of Lp-PLA2 inhibitors on modulating M1/M2 imbalance. In this study, rats were induced to develop experimental autoimmune encephalomyelitis (EAE) by immunization with myelin basic protein (MBP) antigen and treated with a known Lp-PLA2 inhibitor: 5-((9-Methoxy-4-oxo-6,7-dihydro-4H-pyrimido[6,1-a]isoquinolin-2-yl)oxy)-2-(3-(trifluoromethyl)phenoxy)benzonitrile (See PCT application no. PCT/CN2011/001597) For preventive treatment, compound administration started at day 0 whereas it started at 7 day in therapeutic treatment. Rats were subsequently monitored for symptoms of EAE. Rats were immunized with MBP to develop EAE and symptoms were monitored daily. Plasma Lp-PLA2 activity and LysoPC concentration were determined at different time points through the course of EAE.
Ex vivo analysis of proinflammatory (M1) and anti-inflammatory (M2) markers in control and compound treated EAE […]. Splenic macrophages were harvested at day 13 post MBP-immunization and assayed for expression of a variety of markers by realtime PCR. CNS infiltrating cells were harvested and macrophages were analyzed for expression of M1 and M2 markers by realtime PCR.

[2] = target: T1, recombinant human Lp-PLA2 (Homo sapiens, UniProt Q13093); experiment: Recombinant human Lp-PLA2 assay (rhLp-PLA2, PED6 assay); type: biochemical; details: upper limit for pIC50 obtained in this assay is 9.3
T1 sequence (Q13093 22-441): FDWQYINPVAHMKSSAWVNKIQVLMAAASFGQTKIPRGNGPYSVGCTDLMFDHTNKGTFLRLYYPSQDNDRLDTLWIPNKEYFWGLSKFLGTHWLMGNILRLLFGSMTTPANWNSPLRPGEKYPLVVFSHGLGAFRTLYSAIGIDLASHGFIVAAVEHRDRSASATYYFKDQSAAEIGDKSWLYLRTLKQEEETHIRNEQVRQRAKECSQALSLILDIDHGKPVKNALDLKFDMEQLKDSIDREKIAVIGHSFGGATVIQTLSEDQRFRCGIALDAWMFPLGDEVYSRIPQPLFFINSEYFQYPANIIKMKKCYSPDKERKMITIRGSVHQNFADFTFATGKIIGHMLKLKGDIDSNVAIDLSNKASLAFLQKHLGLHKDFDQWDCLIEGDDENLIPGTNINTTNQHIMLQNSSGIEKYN
Text: (1) Recombinant Human Lp-PLA2 Assay (rhLp-PLA2) (Also Referred to as “PED6” Assay)
N-((6-(2,4-dinitrophenyl)amino)-hexanoyl)-2-(4,4-difluoro-5,7-dimethyl-4-bora-3a,4a-diaza-s-indacene-3-pentanoyl)-1-hexadecanoyl-sn-glycero-3-phosphoethanolamine, triethylammonium salt (PED6) is a commercially available fluorescently-labelled phospholipid, which is commercially available from Molecular Probes. There is a quenching para-nitro phenyl (PNP) group in the sn3 position and a Bodipy fluorescein (FL) group in the sn2 position. Upon cleavage with Lp-PLA2, the Bodipy F1 group is liberated and then may result in an increase in fluorescence.
The PED6 assay was run as an unquenched 10 μL assay. Compounds source plate was prepared by making 1:3 (by volume) serial dilution of the compounds into pure DMSO on 384-well microplate. […] 5 μL of recombinant human Lp-PLA2 enzyme (2 nM rhLp-PLA2 in assay buffer of 50 mM HEPES, pH7.4, 150 mM NaCl, 1 mM CHAPS) was added to each well of the plate with compounds. Plates were centrifuged for 10 sec at 500 rpm. […] Plates were centrifuged for 10 sec at 500 rpm. Plate was covered to protect from light and incubated for 20 min at room temperature. […] PIC50 data, curve and QC analysis was conducted by using XL fit module in Excel.

[3] = target: T2, Lp-PLA2 from plasma (pooled human plasma) (Homo sapiens, UniProt Q13093); experiment: Lp-PLA2 human plasma assay (Thio-PAF assay); type: biochemical; details: read-out: pIC50 in the thio-PAF assay (converted)
T2 construct: from tissue; host or cells: pooled human plasma
T2 sequence (Q13093 22-441): T1 sequence (Q13093 22-441)
Text: (3) Lipoprotein-Associated Phospholipase A2 (Lp-PLA2) Human Plasma Assay (Also Referred to as “Thio-PAF Assay”)
The human plasma assay utilizes a thioester analog of PAF (phosphatidylcholine), where hydrolysis yields to the formation of a phospholipid containing a free thiol group. The amount of thiol is quantitated continuously by reacting with CPM (7-diethylamino-3-(4′-maleimidylphenyl)-4-methylcoumarin), a maleimide which increases in fluorescence after Michael addition of thiols. This assay may detect the activity of Lp-PLA2 from plasma, as determined by specific inhibition by Lp-PLA2 inhibitors.
The thio-PAF assay was run as a quenched 15 μL assay. Compounds source plate was prepared by making 1:3 (by volume) serial dilution of the compounds into pure DMSO on 384-well microplate. 0.01 μL of compounds on compound source plate were transferred to 384 well Greiner 784076 (black) low-volume plates by ECHO liquid dispenser. 8 μL pooled human plasma, which was previously aliquoted and frozen, was added. Plates were centrifuged for 10 sec at 500 rpm. After 30 minutes preincubation, 2 μL of substrate (2.5 mM thio-PAF, 3.2 mM NEM (N-ethylmaleimide) [made fresh daily in DMSO], and 32 μM CPM [from a DMSO stock] in assay buffer of 50 mM HEPES, pH7.4, 150 mM NaCl, 1 mM CHAPS was added to 384 well Greiner 784076 (black) low-volume plates by BRAVO liquid handling station. Plates were centrifuged for 10 sec at 500 rpm. Plate was covered to protect from light and incubated for 2 min at room temperature. Reaction was quenched with 5 μL of 5% aqueous trifluoroacetic acid (TFA). Plates were covered to protect from light and incubated for 40 min at room temperature. Plates were read at ex: 380/em: 485 using-Envision microplate reader. PIC50 data, curve and QC analysis was conducted by using XLFit module in Excel.
All exemplified compounds of the present invention were tested in thio-PAF assay or similar assay as described above.

Compound	pIC50 [2]	IC50 [3] [µM]	M1 markers (proinflammatory) expression [1]	M2 markers (anti-inflammatory) expression [1]
COc1ccc2c(c1)CCn1c-2cc(Oc2ccc(Oc3cccc(C(F)(F)F)c3)c(C#N)c2)nc1=O [5-((9-Methoxy-4-oxo-6,7-dihydro-4H-pyrimido[6,1-a]isoquinolin-2-yl)oxy)-2-(3-(trifluoromethyl)phenoxy)benzonitrile]			decrease	increase
COc1ncc(Cc2c[nH]c(OCCc3ccc(Oc4ncccn4)cc3)nc2=O)cn1 [E147, 5-((2-methoxypyrimidin-5-yl)methyl)-2-(4-(pyrimidin-2-yloxy)phenethoxy)pyrimidin-4(1H)-one]	< 5.00	> 10		
CCc1c[nH]c(OCCc2ccc(Oc3c(F)cc(Cl)cc3F)cc2)nc1=O [E180, 2-(4-(4-chloro-2,6-difluorophenoxy)phenethoxy)-5-ethylpyrimidin-4(1H)-one]	< 5.00	> 10		

More lines, main results first:

pIC50 [2]	IC50 [3] [µM]	Compound	M1 markers (proinflammatory) expression [1]	M2 markers (anti-inflammatory) expression [1]
< 5.00	> 10	CCc1c[nH]c(CCc2ccc(Oc3cccc(C(F)(F)F)c3)cc2)nc1=O [E37, 5-ethyl-2-(4-(3-(trifluoromethyl)phenoxy)phenethyl)pyrimidin-4(1H)-one]		
< 5.00		CCc1c[nH]c(CCc2ccc(Oc3ccc(F)cc3)cc2)nc1=O [E46, 5-ethyl-2-(4-(4-fluorophenoxy)phenethyl)pyrimidin-4(1H)-one]		
